± gives the standard deviation of the averaged measurements.
How the values were obtained:
Assay in all cases: level (log10 ratio to DMSO vehicle control); higher = higher biomarker level / cell amount than vehicle control
[1] = compound: C=CC(F)(F)C(F)(F)C(F)(F)C(F)(F)C(F)(F)C(F)(F)C(F)(F)C(F)(F)C=C [1,8-Divinylperfluorooctane]; settings: in DMSO
Protocol: (§1)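 BioMAP Diversity Plus panel of 12 human primary cell co-culture systems (3C, 4H, LPS, SAg, BT, BF4T, BE3C, CASM3C, HDF3CGF, KF3CT, MyoF, Mphg). Compounds were added 1 h before stimulation and left for 24 h (MyoF 48 h; BT 72 h for soluble read-outs or 6 d for IgG). Biomarkers were read by ELISA, cytotoxicity by SRB, PBMC viability and proliferation by Alamar Blue. Each well value was divided by the mean of 8 DMSO control wells on the same plate and log10 transformed; duplicate blinded samples were tested at 4 concentrations.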

[2] = compound: O=C(O)C(F)(F)C(F)(F)C(F)(F)C(F)(F)F [Perfluoropentanoic acid]; settings: in DMSO
Protocol: as §1

[3] = compound: O=C(O)C(F)(F)C(F)(F)C(F)(F)OC(F)(C(F)(F)F)C(F)(F)F [Perfluoro-4-isopropoxybutanoic acid]; settings: in DMSO
Protocol: as §1

[4] = compound: O=C(O)C(F)(F)C(F)(F)C(F)F [4H-Perfluorobutanoic acid]; settings: in DMSO
Protocol: as §1

[5] = compound: O=C(O)C(F)(F)C(F)(F)F [Perfluoropropanoic acid]; settings: in DMSO
Protocol: as §1

[6] = compound: O=C(O)C(F)(F)OC(F)(F)C(F)(F)OC(F)(F)C(=O)O [Perfluoro-3,6-dioxaoctane-1,8-dioic acid]; settings: in DMSO
Protocol: as §1

[7] = compound: OCCCC(F)(F)C(F)(F)C(F)(F)C(F)(F)C(F)(F)C(F)(F)C(F)(F)F [7:3 Fluorotelomer alcohol]; settings: 6700 nM; in DMSO
Protocol: as §1

Test System	level (log10) ([1]; 6700 nM)	level (log10) ([1]; 20000 nM)	level (log10) ([2]; 6700 nM)	level (log10) ([2]; 20000 nM)	level (log10) ([2]; 60000 nM)	level (log10) ([3]; 6700 nM)	level (log10) ([3]; 20000 nM)	level (log10) ([3]; 60000 nM)	level (log10) ([4]; 6700 nM)	level (log10) ([4]; 20000 nM)	level (log10) ([4]; 60000 nM)	level (log10) ([5]; 6700 nM)	level (log10) ([5]; 20000 nM)	level (log10) ([5]; 60000 nM)	level (log10) ([6]; 6700 nM)	level (log10) ([6]; 20000 nM)	level (log10) ([6]; 60000 nM)	level (log10) [7]
MyoF:MMP-1	-0.054 ± 0.037	0.034 ± 0.099	-0.009 ± 0.02	-0.0215 ± 0.011	0.009 ± 0.071	-0.0155 ± 0.0092	0.0115 ± 0.013	0.045 ± 0.051	-0.0355 ± 0.07	-0.07 ± 0.054	0.022 ± 0.044	-0.0675 ± 0.11	-0.0565 ± 0.06	0.05 ± 0.095	-0.0065 ± 0.0092	-0.0155 ± 0.019	0.0225 ± 0.067	-0.004
CASM3C:CD106/VCAM-1	-0.018 ± 0.0042	-0.019 ± 0.02	-0.0225 ± 0.0078	-0.0565 ± 0.029	-0.009 ± 0.0057	-0.003 ± 0.0071	-0.016 ± 0.016	-0.007 ± 0.021	0.031 ± 0.057	0.041 ± 0.014	0.04 ± 0.0085	0.027 ± 0.025	0.0445 ± 0.052	0.0445 ± 0.0078	-0.005 ± 0.0014	-0.003 ± 0.0042	0.0175 ± 0.042	-0.012 ± 0.016
HDF3CGF:M-CSF	-0.0335 ± 0.042	-0.0085 ± 0.053	0.0025 ± 0.019	-0.018 ± 0.0099	0.004 ± 0.0028	-0.016 ± 0.0071	-0.0135 ± 0.0078	-0.0055 ± 0.005	-0.0305 ± 0.035	-0.013 ± 0.033	-0.015 ± 0.041	0.0065 ± 0.067	-0.042 ± 0.027	-0.0295 ± 0.042	-0.007 ± 0.014	-0.003 ± 0.0028	-0.0045 ± 0.00071	0.0035 ± 0.044
HDF3CGF:Proliferation 72hr	0.103 ± 0.028	-0.046 ± 0.028	0.002 ± 0.041	0.0505 ± 0.11	0.022 ± 0.03	0.0305 ± 0.037	0.04 ± 0.055	0.051 ± 0.011	-0.0415 ± 0.012	-0.03 ± 0.0042	0.066 ± 0.02	0.006 ± 0.0042	-0.01 ± 0.045	0.0325 ± 0.0078	0.0035 ± 0.0035	0.008 ± 0.016	0.012 ± 0.035	-0.49 ± 0.0042
CASM3C:M-CSF	-0.0375 ± 0.011	-0.0235 ± 0.023	-0.0055 ± 0.016	-0.004 ± 0.017	0.0045 ± 0.032	0.0165 ± 0.032	0.0075 ± 0.039	0.0155 ± 0.043	0.004 ± 0.045	-0.009 ± 0.016	0.059 ± 0.027	-0.0265 ± 0.16	0.0055 ± 0.0092	0.034 ± 0.065	0.0205 ± 0.016	-0.0025 ± 0.0035	0.0385 ± 0.011	0.007 ± 0.0042
CASM3C:PAI-I	-0.0015 ± 0.00071	0.004 ± 0.0028	-0.0095 ± 0.011	-0.007 ± 0.0042	0.0005 ± 0.011	0.007 ± 0.016	0.01 ± 0.021	0.0075 ± 0.026	0.009 ± 0.0071	0.006 ± 0.0071	0.0075 ± 0.0021	-0.0035 ± 0.0021	-0.003 ± 0.0014	0.0005 ± 0.0064	0.0025 ± 0.00071	0.0005 ± 0.0078	0.0155 ± 0.0064	-0.005 ± 0.0014
CASM3C:CD142/Tissue Factor	0.0035 ± 0.028	-0.0085 ± 0.005	-0.002 ± 0.0071	-0.013 ± 0.024	-0.0225 ± 0.056	-0.018 ± 0.033	-0.011 ± 0.0042	0.0205 ± 0.025	0.0045 ± 0.14	-0.039 ± 0.093	-0.0415 ± 0.037	-0.0995 ± 0.039	-0.0395 ± 0.03	-0.0085 ± 0.039	-0.012 ± 0.013	-0.0275 ± 0.022	0.0215 ± 0.053	-0.011 ± 0.016
HDF3CGF:SRB	0.025 ± 0.051	0.069 ± 0.14	0.012 ± 0.011	0.01 ± 0.018	0.0125 ± 0.03	-0.0125 ± 0.025	0.0115 ± 0.037	-0.0055 ± 0.015	-0.0125 ± 0.06	-0.0095 ± 0.0035	0.0155 ± 0.022	-0.003 ± 0.0085	-0.0175 ± 0.011	-0.0335 ± 0.032	0.009 ± 0.041	-0.0035 ± 0.015	-0.0125 ± 0.012	-0.014 ± 0.027
KF3CT:CXCL10/IP-10	-0.001 ± 0.018	-0.0135 ± 0.005	0.002 ± 0.0042	-0.0085 ± 0.0035	0.0025 ± 0.016	0.019 ± 0.034	0.017 ± 0.023	0.0235 ± 0.043	-0.007 ± 0.016	-0.0035 ± 0.016	0.01 ± 0.0042	-0.022 ± 0.033	0.004 ± 0.014	0.019 ± 0.0085	0.0045 ± 0.011	0.0095 ± 0.022	0.029 ± 0.0085	0.01 ± 0.0042
lMphg:SRB	0.0125 ± 0.00071	0.019 ± 0.0028	-0.0125 ± 0.0035	-0.0065 ± 0.0092	0.01 ± 0.018	-0.003 ± 0.0071	-0.0035 ± 0.005	-0.009 ± 0.023	-0.0035 ± 0.019	-0.005 ± 0.0057	0.0025 ± 0.0021	-0.0065 ± 0.005	-0.0125 ± 0.0021	-0.011 ± 0.016	-0.0035 ± 0.013	-0.009 ± 0.014	-0.0035 ± 0.015	-0.0085 ± 0.0064
lMphg:CCL2/MCP-1	-0.0195 ± 0.013	0.0125 ± 0.03	0.038 ± 0.0028	0.0155 ± 0.03	0.0015 ± 0.035	-0.018 ± 0.0042	-0.0185 ± 0.0092	0.0175 ± 0.0078	-0.024 ± 0.027	-0.0125 ± 0.0035	0.0005 ± 0.021	-0.021 ± 0.017	-0.0045 ± 0.0064	0.002 ± 0.013	-0.0165 ± 0.021	-0.019 ± 0.027	-0.008 ± 0.0057	0.001 ± 0.0057
HDF3CGF:CD106/VCAM-1	-0.028 ± 0.021	-0.016 ± 0.017	-0.0095 ± 0.005	0.0035 ± 0.036	0.0035 ± 0.022	-0.027 ± 0.062	-0.0545 ± 0.067	-0.0545 ± 0.00071	-0.0385 ± 0.018	-0.0525 ± 0.022	-0.0445 ± 0.096	-0.0555 ± 0.0035	-0.018 ± 0.0014	0.0175 ± 0.052	-0.0075 ± 0.00071	-0.0085 ± 0.016	-0.0035 ± 0.05	-0.0795 ± 0.005
lMphg:CXCL8/IL-8	0.0055 ± 0.026	0.0125 ± 0.064	0.005 ± 0.031	-0.0275 ± 0.013	0.044 ± 0.064	0.02 ± 0.042	0.066 ± 0.038	0.164 ± 0.0035	0.024 ± 0.0028	0.0145 ± 0.0021	0.0315 ± 0.011	0.0055 ± 0.0078	0.017 ± 0.018	0.0175 ± 0.043	-0.024 ± 0.027	0 ± 0.068	-0.002 ± 0.085	0.01 ± 0.013
KF3CT:CCL2/MCP-1	-0.0165 ± 0.016	0.009 ± 0.042	0.002 ± 0.02	-0.025 ± 0.025	0.0215 ± 0.05	0.0235 ± 0.039	0.032 ± 0.018	0.023 ± 0.052	-0.0705 ± 0.0092	-0.032 ± 0.0099	-0.0115 ± 0.023	-0.0395 ± 0.0078	-0.018 ± 0.028	0.0055 ± 0.06	-0.0135 ± 0.016	-0.011 ± 0.0057	-0.0045 ± 0.013	-0.0105 ± 0.005
MyoF:CXCL8/IL-8	-0.028 ± 0.014	0.0085 ± 0.035	-0.008 ± 0.02	0.01 ± 0.0071	0.024 ± 0.014	0.0195 ± 0.06	0.077 ± 0.079	0.0735 ± 0.074	-0.0125 ± 0.059	-0.0145 ± 0.0035	0.0465 ± 0.074	-0.0055 ± 0.029	-0.004 ± 0.085	0.022 ± 0.075	-0.0025 ± 0.023	-0.012 ± 0.0085	0.034 ± 0.045	0.017 ± 0.052
3C:CD141/Thrombomodulin	-0.0215 ± 0.022	-0.0055 ± 0.023	0.024 ± 0.021	0.0345 ± 0.005	0.0685 ± 0.042	-0.019 ± 0.0014	-0.0365 ± 0.019	-0.015 ± 0.0028	-0.0285 ± 0.0078	-0.008 ± 0.013	0.0035 ± 0.0035	-0.016 ± 0.031	0.011 ± 0.021	0.0155 ± 0.0035	-0.0265 ± 0.036	-0.0065 ± 0.023	0.0095 ± 0.028	-0.032
